Results as given in the supplement of paper PMC10307832.

Experiments:
Assay in all cases: relative viability (nuclei count vs DMSO), 5 days (fraction); higher = more cells survive
VX-702 = compound: NC(=O)c1ccc(N(C(N)=O)c2c(F)cccc2F)nc1-c1ccc(F)cc1F [VX-702]
In short: (§1)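 MetaXpress counted nuclei in 4× images of lung cancer cell lines that had been fixed, permeabilised and Hoechst-stained in one step. Before that, cells in 1536-well plates were kept overnight at 37 °C, pinned with five √10-spaced library-drug doses on vehicle-anchored plates, and cultured 5 days without medium change. Viability takes treated-well nuclei over vehicle-well nuclei and uses the median across plates. Plates were accepted only at control CV below 25% and at least one doubling.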

Dabrafenib = compound: CC(C)(C)c1nc(-c2cccc(NS(=O)(=O)c3c(F)cccc3F)c2F)c(-c2ccnc(N)n2)s1 [Dabrafenib]
In short: as §1

VX-702 + Phenformin = compound: NC(=O)c1ccc(N(C(N)=O)c2c(F)cccc2F)nc1-c1ccc(F)cc1F [VX-702] + N=C(N)NC(=N)NCCc1ccccc1 [Phenformin] (partner 250 µM)
In short: (§2)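 Cells from lung cancer lines were seeded into 1536-well plates and, one day later, dosed by pin tool. Treatments were either a single drug or a fixed dose of an anchor drug with five library-drug doses (not always all listed) in √10 steps. After 5 days, nuclei were stained in a one-step fixation (final 0.05% Triton X-100, 1% formaldehyde, 1 ug/ml Hoechst) and counted on 4× images, and relative viability is the treated-to-vehicle nuclei ratio, as the median of duplicate plates.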

Dabrafenib + Navitoclax = compound: CC(C)(C)c1nc(-c2cccc(NS(=O)(=O)c3c(F)cccc3F)c2F)c(-c2ccnc(N)n2)s1 [Dabrafenib] + CC1(C)CCC(c2ccc(Cl)cc2)=C(CN2CCN(c3ccc(C(=O)NS(=O)(=O)c4ccc(N[C@H](CCN5CCOCC5)CSc5ccccc5)c(S(=O)(=O)C(F)(F)F)c4)cc3)CC2)C1 [Navitoclax] (partner 0.5 µM)
In short: as §2

Row | Cell Line | relative viability (VX-702; 0.02 µM) | relative viability (VX-702; 0.2 µM) | relative viability (VX-702; 0.6325 µM) | relative viability (VX-702; 2 µM) | relative viability (Dabrafenib; 0.003 µM) | relative viability (Dabrafenib; 0.009487 µM) | relative viability (Dabrafenib; 0.03 µM) | relative viability (Dabrafenib; 0.09487 µM) | relative viability (Dabrafenib; 0.3 µM) | relative viability (VX-702 + Phenformin; first compound 0.02 µM) | relative viability (VX-702 + Phenformin; first compound 0.2 µM) | relative viability (VX-702 + Phenformin; first compound 0.6325 µM) | relative viability (VX-702 + Phenformin; first compound 2 µM) | relative viability (Dabrafenib + Navitoclax; first compound 0.003 µM) | relative viability (Dabrafenib + Navitoclax; first compound 0.009487 µM) | relative viability (Dabrafenib + Navitoclax; first compound 0.03 µM) | relative viability (Dabrafenib + Navitoclax; first compound 0.09487 µM) | relative viability (Dabrafenib + Navitoclax; first compound 0.3 µM)
1 | 201T | 0.981 | 1 | 1.01 | 0.976 | 0.958 | 1.01 | 0.914 | 0.987 | 1.04 | 0.43 | 0.457 | 0.453 | 0.434 | 1.19 | 1.18 | 1.15 | 1.15 | 1.26
2 | A549 | 0.999 | 0.928 | 1.02 | 1.07 | 0.928 | 1.03 | 0.93 | 0.93 | 0.969 | 0.128 | 0.19 | 0.154 | 0.137 | 1.09 | 1.26 | 1.28 | 1.18 | 1.2
3 | A-427 | 0.985 | 0.964 | 1.04 | 0.754 |  | 0.983 | 0.849 | 0.797 | 1.03 | 0.306 | 0.303 | 0.395 | 0.28 |  | 0.954 | 0.91 | 0.803 | 0.888
4 | ABC-1 | 0.979 | 0.813 | 0.903 | 1.02 | 0.833 | 1.06 | 0.871 | 0.844 | 1.02 | 0.214 | 0.201 | 0.229 | 0.228 |  |  |  |  | 
5 | BEN | 0.853 | 0.879 | 0.866 | 1.06 |  | 1.05 |  | 0.889 | 1.07 | 0.263 | 0.252 | 0.228 | 0.236 |  | 0.0803 |  | 0.0599 | 0.0801
6 | CAL-12T | 0.959 | 0.994 | 1.04 | 1.07 | 0.96 | 1.01 | 1.05 | 0.946 | 1.18 | 0.699 | 0.55 | 0.609 | 0.632 | 1.28 | 1.32 | 1.4 | 1.3 | 1.27
7 | COR-L23 | 1.17 | 1.05 | 1.16 | 1.21 | 0.976 | 1 | 0.968 | 0.93 | 0.998 | 0.484 | 0.492 | 0.437 | 0.494 | 0.948 | 0.997 | 0.908 | 0.927 | 0.894
8 | COR-L 105 | 0.941 | 0.961 | 0.879 | 0.861 | 0.851 | 0.995 | 0.927 | 0.955 | 1.13 | 0.529 | 0.478 | 0.448 | 0.459 | 0.73 | 0.856 | 0.649 | 0.875 | 0.744
9 | Calu-6 | 1.11 | 1 | 1.08 | 1.21 | 1.03 | 1.03 | 0.909 | 0.805 | 0.786 |  |  |  |  | 0.83 | 0.799 | 0.77 | 0.604 | 0.587
10 | ChaGo-K-1 | 1.03 | 0.993 | 0.994 | 1.02 | 0.787 | 0.951 | 0.876 | 0.912 | 1.01 | 0.528 | 0.462 | 0.506 | 0.499 |  | 0.891 | 0.966 | 0.986 | 1.06
11 | EBC-1 | 1.08 | 0.999 | 0.968 | 1.08 | 0.856 | 0.987 | 0.895 | 0.533 | 0.391 |  |  |  |  | 0.369 | 0.373 | 0.32 | 0.145 | 0.221
12 | EKVX | 0.95 | 0.863 | 0.891 | 0.923 | 0.693 | 1.03 | 0.932 | 0.941 | 1.14 | 0.235 | 0.189 | 0.224 | 0.214 | 0.778 | 1.01 | 0.961 | 0.894 | 1.11
13 | EMC-BAC-2 | 1 | 0.943 | 0.98 | 0.842 |  | 1.04 | 0.706 | 0.701 | 0.751 | 0.522 | 0.549 | 0.526 | 0.402 | 1.27 | 1.19 | 0.998 | 1.1 | 1.19
14 | EPLC-272H | 1.03 | 0.827 | 1.02 | 1.01 | 0.509 | 1.01 | 0.971 | 0.785 | 0.964 | 0.303 | 0.302 | 0.381 | 0.26 |  | 1.39 | 0.997 | 0.875 | 0.824
15 | H3255 | 0.978 | 0.966 | 0.96 | 1.05 | 0.868 | 1.05 | 0.992 | 0.873 | 1.04 | 0.352 | 0.344 | 0.371 | 0.386 | 0.375 | 0.669 | 0.548 | 0.441 | 0.566
16 | HARA | 0.964 | 0.897 | 0.965 | 0.969 | 0.737 | 1 |  | 0.922 | 1.12 | 0.433 | 0.42 | 0.599 | 0.569 | 1.14 | 1.15 | 1.07 | 1.07 | 1.12
17 | HCC-15 | 0.989 | 0.982 | 1.08 | 1.03 | 0.942 | 1.04 | 1.04 | 0.928 | 0.921 | 0.536 | 0.441 | 0.525 | 0.557 | 0.728 | 0.787 | 0.734 | 0.694 | 0.833
18 | HCC-44 | 1.05 | 0.979 | 1.08 | 1.05 | 0.885 | 0.971 | 1.01 | 0.921 | 0.933 | 0.191 | 0.286 | 0.191 | 0.225 | 0.939 | 1.04 | 0.939 | 0.843 | 1.04
19 | HCC-78 | 0.947 | 0.878 | 0.98 | 1.07 |  | 1.03 | 0.932 | 0.816 | 1.05 | 0.63 | 0.823 | 0.689 | 0.676 |  | 0.908 | 0.702 | 0.795 | 0.869
